Measurements from patent publication US8952024B2, “Herbicidal pyrimidone derivatives” (E I du Pont de Nemours and Company, priority 2009, dated 2015).

Legend:
Assay type in all cases: in vivo
[1] = system: umbrella sedge (Cyperus difformis); assay: Test B flooded paddy test; settings: for Plant response rating, Flood, Sedge, Umbrella: 250 g ai/ha, flooded paddy test, visual rating on 0 to 100 scale (0 no effect, 100 complete control) after 13 to 15 days; for Plant response rating, Sedge, Umbrella: Flood (flooded paddy test), 13 to 15 days; for Sedge, Umbrella plant response rating: Flood, 31 g ai/ha, scale 0 to 100 (0 no effect, 100 complete control)
Summary of the method: (§1)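 Visual scores run from 0 (no effect) to 100 (complete control), assigned by comparison with controls 13 to 15 days after treatment. Test compounds went straight into water standing 3 cm above the soil, around plants at the 2-leaf stage kept in a greenhouse.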

[2] = system: rice (Oryza sativa); assay: Test B flooded paddy test; settings: for Plant response rating, Flood, Rice: 250 g ai/ha, flooded paddy test, visual rating on 0 to 100 scale (0 no effect, 100 complete control) after 13 to 15 days; for Plant response rating, Rice: Flood (flooded paddy test), 13 to 15 days; for Rice plant response rating: Flood, 31 g ai/ha, scale 0 to 100 (0 no effect, 100 complete control)
Summary of the method: as §1

[3] = system: johnsongrass (Sorghum halepense); assay: Test B pre-/postemergence plant response; settings: for Johnsongrass plant response rating (0 to 100 scale): 62 g ai/ha, 0 is no effect, 13 to 15 days
Summary of the method: (§2)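 Visually scored on a 0 to 100 scale after 13 to 15 days in greenhouse versus controls. Treatments were preemergence on seeded loam/sand soil and postemergence on 1- to 4-leaf plants.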

[4] = system: wild oat (Avena fatua); assay: Test B pre-/postemergence plant response; settings: for Oat, Wild plant response rating (0 to 100 scale): 62 g ai/ha, 0 is no effect, 13 to 15 days
Summary of the method: as §2

[5] = system: Surinam grass (Brachiaria decumbens); assay: Test B pre-/postemergence plant response; settings: for Surinam Grass plant response rating (0 to 100 scale): 62 g ai/ha, 0 is no effect, 13 to 15 days
Summary of the method: as §2

[6] = system: green foxtail (Setaria viridis); assay: Test B pre-/postemergence plant response; settings: for Foxtail, Green plant response rating (0 to 100 scale): 62 g ai/ha, 0 is no effect, 13 to 15 days
Summary of the method: as §2

[7] = system: corn (Zea mays); assay: Test B pre-/postemergence plant response; settings: for Corn plant response rating (0 to 100 scale): 62 g ai/ha, 0 is no effect, 13 to 15 days
Summary of the method: as §2

[8] = system: lambsquarters (Chenopodium album); assay: Test B pre-/postemergence plant response; settings: for Lambsquarters plant response rating (0 to 100 scale): 62 g ai/ha, 0 is no effect, 13 to 15 days
Summary of the method: as §2

[9] = system: pigweed (Amaranthus retroflexus); assay: Test B pre-/postemergence plant response; settings: for Pigweed plant response rating (0 to 100 scale): 62 g ai/ha, 0 is no effect, 13 to 15 days
Summary of the method: as §2

[10] = system: blackgrass (Alopecurus myosuroides); assay: Test B pre-/postemergence plant response; settings: for Blackgrass plant response rating (0 to 100 scale): 62 g ai/ha, 0 is no effect, 13 to 15 days
Summary of the method: as §2

[11] = system: ragweed (common ragweed, Ambrosia elatior); assay: Test B pre-/postemergence plant response; settings: for Ragweed plant response rating (0 to 100 scale): 62 g ai/ha, 0 is no effect, 13 to 15 days
Summary of the method: as §2

[12] = system: giant foxtail (Setaria faberii); assay: Test B pre-/postemergence plant response; settings: for Foxtail, Giant plant response rating (0 to 100 scale): 62 g ai/ha, 0 is no effect, 13 to 15 days
Summary of the method: as §2

[13] = system: goosegrass (Eleusine indica); assay: Test B pre-/postemergence plant response; settings: for Goosegrass plant response rating (0 to 100 scale): 62 g ai/ha, 0 is no effect, 13 to 15 days
Summary of the method: as §2

[14] = 62 g ai/ha, scale of 0 to 100 where 0 is no effect and 100 is complete control
[15] = 125 g ai/ha, scale 0 to 100, 0 is no effect, 100 is complete control
[16] = 31 g ai/ha, postemergence, scale 0 to 100, 0 is no effect, 100 is complete control
[17] = postemergence, 100 is complete control
[18] = Postemergence, 125 g ai/ha, visual rating after 13 to 15 days, scale 0 (no effect) to 100 (complete control)
[19] = Postemergence, 250 g ai/ha, scale 0 to 100 (0 no effect, 100 complete control)

## Cc1ccc(-c2ncc(C(=O)C3=C(O)CCCC3=O)c(=O)n2-c2ccccc2)cc1 [Compound 80]
[1]
  Plant response rating, Flood, Sedge, Umbrella: 40
  Sedge, Umbrella plant response rating: 0
[1]; [14]
  Plant response rating, Sedge, Umbrella: 20
[1]; [15]
  Plant response rating, Sedge, Umbrella: 30
[2]
  Plant response rating, Flood, Rice: 15
  Rice plant response rating: 0
[2]; [14]
  Plant response rating, Rice: 0
[2]; [15]
  Plant response rating, Rice: 0
[3]; [16]
  Plant response rating, Johnsongrass: 0
[3]; [17]
  Johnsongrass plant response rating (0 to 100 scale): 0
[3]; [18]
  Plant response rating, Johnsongrass: 10
[3]; [19]
  Plant response rating, Johnsongrass: 45
[4]; [16]
  Plant response rating, Oat, Wild: 20
[4]; [17]
  Oat, Wild plant response rating (0 to 100 scale): 30
[4]; [18]
  Plant response rating, Oat, Wild: 40
[4]; [19]
  Plant response rating, Oat, Wild: 50
[5]; [16]
  Plant response rating, Surinam Grass: 45
[5]; [17]
  Surinam Grass plant response rating (0 to 100 scale): 45
[5]; [18]
  Plant response rating, Surinam Grass: 60
[5]; [19]
  Plant response rating, Surinam Grass: 65
[6]; [16]
  Plant response rating, Foxtail, Green: 90
[6]; [17]
  Foxtail, Green plant response rating (0 to 100 scale): 95
[6]; [18]
  Plant response rating, Foxtail, Green: 95
[6]; [19]
  Plant response rating, Foxtail, Green: 98
[7]; [16]
  Plant response rating, Corn: 5
[7]; [17]
  Corn plant response rating (0 to 100 scale): 35
[7]; [18]
  Plant response rating, Corn: 65
[7]; [19]
  Plant response rating, Corn: 65
[8]; [16]
  Plant response rating, Lambsquarters: 95
[8]; [17]
  Lambsquarters plant response rating (0 to 100 scale): 95
[8]; [18]
  Plant response rating, Lambsquarters: 98
[8]; [19]
  Plant response rating, Lambsquarters: 100
[9]; [16]
  Plant response rating, Pigweed: 100
[9]; [17]
  Pigweed plant response rating (0 to 100 scale): 100
[9]; [18]
  Plant response rating, Pigweed: 100
[9]; [19]
  Plant response rating, Pigweed: 100
[10]; [16]
  Plant response rating, Blackgrass: 0
[10]; [17]
  Blackgrass plant response rating (0 to 100 scale): 0
[10]; [18]
  Plant response rating, Blackgrass: 5
[10]; [19]
  Plant response rating, Blackgrass: 10
[11]; [16]
  Plant response rating, Ragweed: 50
[11]; [17]
  Ragweed plant response rating (0 to 100 scale): 60
[11]; [18]
  Plant response rating, Ragweed: 65
[11]; [19]
  Plant response rating, Ragweed: 75
[12]; [16]
  Plant response rating, Foxtail, Giant: 75
[12]; [17]
  Foxtail, Giant plant response rating (0 to 100 scale): 90
[12]; [18]
  Plant response rating, Foxtail, Giant: 95
[12]; [19]
  Plant response rating, Foxtail, Giant: 95
[13]; [16]
  Plant response rating, Goosegrass: 70
[13]; [17]
  Goosegrass plant response rating (0 to 100 scale): 75
[13]; [18]
  Plant response rating, Goosegrass: 80
[13]; [19]
  Plant response rating, Goosegrass: 85

## Cc1ccccc1-c1ncc(C(=O)C2=C(O)CCCC2=O)c(=O)n1-c1ccccc1 [Compound 82]
[1]
  Plant response rating, Flood, Sedge, Umbrella: 50
  Sedge, Umbrella plant response rating: 0
[1]; [14]
  Plant response rating, Sedge, Umbrella: 0
[1]; [15]
  Plant response rating, Sedge, Umbrella: 40
[2]
  Plant response rating, Flood, Rice: 20
  Rice plant response rating: 0
[2]; [14]
  Plant response rating, Rice: 0
[2]; [15]
  Plant response rating, Rice: 15
[3]; [16]
  Plant response rating, Johnsongrass: 65
[3]; [17]
  Johnsongrass plant response rating (0 to 100 scale): 80
[3]; [18]
  Plant response rating, Johnsongrass: 80
[3]; [19]
  Plant response rating, Johnsongrass: 95
[4]; [16]
  Plant response rating, Oat, Wild: 0
[4]; [17]
  Oat, Wild plant response rating (0 to 100 scale): 0
[4]; [18]
  Plant response rating, Oat, Wild: 5
[4]; [19]
  Plant response rating, Oat, Wild: 10
[5]; [16]
  Plant response rating, Surinam Grass: 65
[5]; [17]
  Surinam Grass plant response rating (0 to 100 scale): 65
[5]; [18]
  Plant response rating, Surinam Grass: 75
[5]; [19]
  Plant response rating, Surinam Grass: 80
[6]; [16]
  Plant response rating, Foxtail, Green: 60
[6]; [17]
  Foxtail, Green plant response rating (0 to 100 scale): 60
[6]; [18]
  Plant response rating, Foxtail, Green: 85
[6]; [19]
  Plant response rating, Foxtail, Green: 90
[7]; [16]
  Plant response rating, Corn: 0
[7]; [17]
  Corn plant response rating (0 to 100 scale): 5
[7]; [18]
  Plant response rating, Corn: 5
[7]; [19]
  Plant response rating, Corn: 15
[8]; [16]
  Plant response rating, Lambsquarters: 80
[8]; [17]
  Lambsquarters plant response rating (0 to 100 scale): 95
[8]; [18]
  Plant response rating, Lambsquarters: 100
[8]; [19]
  Plant response rating, Lambsquarters: 100
[9]; [16]
  Plant response rating, Pigweed: 75
[9]; [17]
  Pigweed plant response rating (0 to 100 scale): 98
[9]; [18]
  Plant response rating, Pigweed: 100
[9]; [19]
  Plant response rating, Pigweed: 100
[10]; [16]
  Plant response rating, Blackgrass: 0
[10]; [17]
  Blackgrass plant response rating (0 to 100 scale): 0
[10]; [18]
  Plant response rating, Blackgrass: 5
[10]; [19]
  Plant response rating, Blackgrass: 15
[11]; [16]
  Plant response rating, Ragweed: 75
[11]; [17]
  Ragweed plant response rating (0 to 100 scale): 80
[11]; [18]
  Plant response rating, Ragweed: 95
[11]; [19]
  Plant response rating, Ragweed: 95
[12]; [16]
  Plant response rating, Foxtail, Giant: 75
[12]; [17]
  Foxtail, Giant plant response rating (0 to 100 scale): 80
[12]; [18]
  Plant response rating, Foxtail, Giant: 95
[12]; [19]
  Plant response rating, Foxtail, Giant: 95
[13]; [16]
  Plant response rating, Goosegrass: 75
[13]; [17]
  Goosegrass plant response rating (0 to 100 scale): 75
[13]; [18]
  Plant response rating, Goosegrass: 80
[13]; [19]
  Plant response rating, Goosegrass: 85
